From patent US9540391B2, “Isomannide derivatives as inhibitors of soluble epoxide hydrolase” (SANOFI, priority 2013, dated 2017)
pIC50: −log10 of the molar value. Structures can show the parent of a compound that is named as a salt.

Molecular target: T1, recombinant sEH (Homo sapiens, UniProt P34913)
T1 construct: made in house; host or cells: Sf9 insect cells
T1 sequence (P34913 1-555): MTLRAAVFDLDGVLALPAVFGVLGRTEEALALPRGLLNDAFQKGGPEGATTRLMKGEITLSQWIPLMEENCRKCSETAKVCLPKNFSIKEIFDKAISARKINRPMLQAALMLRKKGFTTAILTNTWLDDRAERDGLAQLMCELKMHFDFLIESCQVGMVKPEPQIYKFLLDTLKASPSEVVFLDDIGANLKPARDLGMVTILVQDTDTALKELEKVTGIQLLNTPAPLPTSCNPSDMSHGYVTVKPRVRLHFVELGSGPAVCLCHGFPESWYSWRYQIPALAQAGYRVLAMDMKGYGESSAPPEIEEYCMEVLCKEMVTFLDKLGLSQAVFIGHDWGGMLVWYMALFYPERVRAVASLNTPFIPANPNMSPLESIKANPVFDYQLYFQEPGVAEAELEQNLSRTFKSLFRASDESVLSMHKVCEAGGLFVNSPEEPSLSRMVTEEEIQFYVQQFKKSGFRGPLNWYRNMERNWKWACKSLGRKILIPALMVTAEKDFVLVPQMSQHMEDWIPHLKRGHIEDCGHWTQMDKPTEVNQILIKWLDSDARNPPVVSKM
Test: biochemical screening assay for inhibition of soluble epoxide hydrolase (fluorometric, Phome substrate)
How it was run: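 Reading fluorescence before substrate addition and after completion corrected for autofluorescence. Reaction: 5 μM Phome, 2 nM recombinant human sEH (Sf9-expressed), compound 0.0001–10 μM, 25 mM Hepes with 0.01% albumin, 15 min pre-incubation then 60 min at 30 °C; IC50 derived from % inhibition.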

SMILES	pIC50
Cc1ncccc1O[C@H]1CO[C@H]2[C@@H]1OC[C@@H]2NC(=O)NC1CCCN(C(=O)C2CC2)C1 (stereo partly drawn) [Example 85, 1-(1-Cyclopropanecarbonyl-piperidin-3-yl)-3-[(3S,3aR,6S,6aS)-6-(2-methyl-pyridin-3-yloxy)-hexahydro-furo[3,2-b]furan-3-yl]-urea]	7.70
O=C(NC1CCCCC1)N[C@H]1CO[C@H]2[C@@H]1OC[C@@H]2Oc1cccnc1 [Example 96, 1-Cyclohexyl-3-[(3S,3aR,6S,6aS)-6-(pyridin-3-yloxy)-hexahydro-furo[3,2-b]furan-3-yl]-urea; trifluoroacetate]	8.40
O=C(NC1CCCCC1)N[C@H]1CO[C@H]2[C@@H]1OC[C@@H]2Oc1cccc(Oc2ccccn2)c1 [Example 127, 1-Cyclohexyl-3-{(3S,3aR,6S,6aS)-6-[3-(pyridin-2-yloxy)-phenoxy]-hexa-hydro-furo[3,2-b]furan-3-yl}-urea]	8.15
O=C(NC1CCCCC1)N[C@H]1CO[C@H]2[C@@H]1OC[C@@H]2Oc1ccccc1 [Example 115, 1-Cyclohexyl-3-((3S,3aR,6S,6aS)-6-phenoxy-hexahydro-furo[3,2-b]furan-3-yl)-urea]	8.52
O=C(Nc1ccc(Cl)c(Cl)c1)NC1COC2C(CCc3ccccc3)COC12 [Example 358, 1-(3,4-Dichloro-phenyl)-3-[(3S,3aR,6R)-6-((S)-phenethyl)-hexahydro-furo[3,2-b]furan-3-yl]-urea]	7.66
CC(C)(CCO)S[C@H]1CO[C@H]2[C@@H]1OC[C@@H]2NC(=O)NC1CCCCC1 [Example 22, 1-Cyclohexyl-3-[(3S,3aR,6S,6aS)-6-(3-hydroxy-1,1-dimethyl-propylsulfanyl)-hexahydro-furo[3,2-b]furan-3-yl]-urea]	8.52
Cc1ncccc1O[C@H]1CO[C@H]2[C@@H]1OC[C@@H]2NC(=O)NC1CCCN(C(=O)OC(C)(C)C)C1 (stereo partly drawn) [Example 81, 3-{3-[(3S,3aR,6S,6aS)-6-(2-methyl-pyridin-3-yloxy)-hexahydro-furo[3,2-b]furan-3-yl]-ureido}-piperidine-1-carboxylic acid tert-butyl ester]	7.80
O=C(Nc1cccc(C(F)(F)F)c1)N[C@H]1CO[C@@H]2[C@@H](CCc3ccccc3)CO[C@@H]21 [Example 368, 1-((3S,3aR,6S,6aR)-6-Phenethyl-hexahydro-furo[3,2-b]furan-3-yl)-3-(3-trifluoromethyl-phenyl)-urea]	7.17
O=C(Nc1ccccc1)N[C@H]1CO[C@@H]2[C@@H]1OC[C@H]2C#Cc1ccccc1 [Example 286, 1-Phenyl-3-[(3S,3aR,6R)-6-((S)-phenylethynyl)-hexa-hydro-furo[3,2-b]furan-3-yl]-urea]	6.64
Cc1ncccc1O[C@H]1CO[C@H]2[C@@H]1OC[C@@H]2NC(=O)NC1CC(C)CCC1C(C)C (stereo partly drawn) [Example 263, 1-(2-Isopropyl-5-methyl-cyclohexyl)-3-[(3S,3aR,6S,6aS)-6-(2-methyl-pyridin-3-yloxy)-hexahydro-furo[3,2-b]furan-3-yl]-urea]	7.60
C[C@@H](NC(=O)N[C@H]1CO[C@H]2[C@@H]1OC[C@@H]2Oc1ccc(F)cc1)c1ccc(Cl)cc1 [Example 166, 1-[(R)-1-(4-Chloro-phenyl)-ethyl]-3-[(3S,3aR,6S,6aS)-6-(4-fluoro-phenoxy)-hexahydro-furo[3,2-b]furan-3-yl]-urea]	7.74
O=C(NCc1ccc(F)cc1)N[C@H]1CO[C@H]2[C@@H]1OC[C@@H]2/C=C\c1ccsc1 [Example 338, 1-(4-Fluoro-benzyl)-3-[(3S,3aR,6S,6aR)-6-((Z)-2-thiophen-3-yl-vinyl)-hexahydro-furo[3,2-b]furan-3-yl]-urea]	6.41
O=C(Nc1cccc(F)c1)N[C@H]1CO[C@H]2[C@@H]1OC[C@@H]2/C=C\c1ccccc1 [Example 329, 1-(3-Fluoro-phenyl)-3-[(3S,3aR,6S,6aR)-6-((Z)-styryl)-hexahydro-furo[3,2-b]furan-3-yl]-urea]	7.02
COC(=O)c1cncc(O[C@H]2CO[C@H]3[C@@H]2OC[C@@H]3NC(=O)NC2CCCCC2)c1 [Example 111, 5-[(3S,3aS,6S,6aR)-6-(3-Cyclohexyl-ureido)-hexahydro-furo[3,2-b]furan-3-yloxy]-nicotinic acid methyl ester]	9.00
Cc1ncccc1O[C@H]1CO[C@H]2[C@@H]1OC[C@@H]2NC(=O)NC(C)(C)C1CCCCC1 [Example 241, 1-(1-Cyclohexyl-1-methyl-ethyl)-3-[(3S,3aR,6S,6aS)-6-(2-methyl-pyridin-3-yloxy)-hexahydro-furo[3,2-b]furan-3-yl]-urea]	6.93
O=C(Nc1ccc(F)cc1)N[C@H]1CO[C@H]2[C@@H]1OC[C@@H]2/C=C\c1ccsc1 [Example 340, 1-(4-Fluoro-phenyl)-3-[(3S,3aR,6S,6aR)-6-((Z)-2-thiophen-3-yl-vinyl)-hexahydro-furo[3,2-b]furan-3-yl]-urea]	7.05
O=C(NC1CCCCC1)N[C@H]1CO[C@H]2[C@@H]1OC[C@@H]2Oc1ccccc1C(=O)N1CCOCC1 [Example 134, 1-Cyclohexyl-3-{(3S,3aR,6S,6aS)-6-[2-(morpholine-4-carbonyl)-phenoxy]-hexahydro-furo[3,2-b]furan-3-yl}-urea]	7.70
O=C(NC1CCCCC1)N[C@H]1CO[C@H]2[C@@H]1OC[C@@H]2Oc1ccc(F)c(Cl)c1 [Example 29, 1-[(3S,3aR,6S,6aS)-6-(3-Chloro-4-fluoro-phenoxy)-hexahydro-furo[3,2-b]furan-3-yl]-3-cyclohexyl-urea]	8.70
O=C(Nc1ccc(OCc2ccccc2)cc1)NC1COC2C(CCc3ccccc3)COC12 [Example 355, 1-(4-Benzyloxy-phenyl)-3-[(3S,3aR,6R)-6-((S)-phenethyl)-hexahydro-furo[3,2-b]furan-3-yl]-urea]	7.10
O=C(NC1CCOCC1)N[C@H]1CO[C@H]2[C@@H]1OC[C@@H]2Oc1ccc(F)cc1 [Example 170, 1-[(3S,3aR,6S,6aS)-6-(4-Fluoro-phenoxy)-hexahydro-furo[3,2-b]furan-3-yl]-3-(tetrahydro-pyran-4-yl)-urea]	6.99
O=C(NC1CCCCC1)N[C@H]1CO[C@H]2[C@@H]1OC[C@@H]2SCC(F)(F)F [Example 45, 1-Cyclohexyl-3-[(3S,3aR,6S,6aS)-6-(2,2,2-trifluoro-ethylsulfanyl)-hexa-hydro-furo[3,2-b]furan-3-yl]-urea]	7.60
Cc1ncccc1O[C@H]1CO[C@H]2[C@@H]1OC[C@@H]2NC(=O)NC1CCCN(C(=O)C(F)(F)F)C1 (stereo partly drawn) [Example 87, 1-[(3S,3aR,6S,6aS)-6-(2-Methyl-pyridin-3-yloxy)-hexahydro-furo[3,2-b]furan-3-yl]-3-[1-(2,2,2-trifluoro-acetyl)-piperidin-3-yl]-urea]	8.00
O=C(NC1CCCCC1)N[C@H]1CO[C@@H]2[C@@H](CCc3ccccn3)CO[C@@H]21 [Example 350, 1-Cyclohexyl-3-[(3S,3aR,6S,6aR)-6-(2-pyridin-2-yl-ethyl)-hexahydro-furo[3,2-b]furan-3-yl]-urea; trifluoroacetate]	7.66
Cc1cnc(CNC(=O)N[C@H]2CO[C@H]3[C@@H]2OC[C@@H]3Oc2cccnc2C)cn1 [Example 190, 1-(5-Methyl-pyrazin-2-ylmethyl)-3-[(3S,3aR,6S,6aS)-6-(2-methyl-pyridin-3-yloxy)-hexahydro-furo[3,2-b]furan-3-yl]-urea]	6.32
